Laboratory results as given in patent US4309407A, “Alkenyl-substituted thienylalkanecarboxylic acids and derivatives thereof” (A. Nattermann & Cie. GmbH, priority 1979, dated 1982).

What was measured:
Adjuvans Arthritis = Adjuvans Arthritis Test, Rat, p.o.; assay type: in vivo; details: 0.1 mg/kg p.o.
Text: 3. Adjuvans Arthritis Test, Rat, p.o. [methodology as per C. N. Pearson, Proc. Soc. Exp. Biol. 91, 95-101 (1956)].

granuloma = experiment: Granuloma Test (Cotton Pellet Test); assay type: in vivo, rat
Text: 2. Granuloma Test (Cotton Pellet Test) [methodology as per R. Meier et al., Experientia 6, 469 (1950)]

rats = experiment: Ulcer-Inducing Effect on rats; assay type: in vivo; details: rat
Text: 4. Ulcer-Inducing Effect on rats [methodology according to W. J. R. Whittle, Brit. J. Pharmacol. 55, 242-3 (1975)].

Rat Paw Edema = Rat Paw Edema Test; assay type: in vivo
Text: 1. Rat Paw Edema Test [methodology as per Hillebrecht, Arzneim.-Forsch (4), 607 (1954)].

Row | SMILES | Inhibiting effect (%) (Adjuvans Arthritis; 14th day p.i.) | Inhibiting effect (%) (Adjuvans Arthritis; 17th day p.i.) | Decrease in weight of granuloma (%) (granuloma; rat dose 0.1 mg/kg per os) | Decrease in weight of granuloma (%) (granuloma; rat dose 1.0 mg/kg per os) | Ulcer-inducing effect (rats; in vivo, 1 mg/kg) | Ulcer-inducing effect (rats; in vivo, 10 mg/kg) | Ulcer-inducing effect (rats; in vivo, 100 mg/kg) | Inhibiting effect (%) (Rat Paw Edema; 0.1 mg/kg per os) | Inhibiting effect (%) (Rat Paw Edema; dose printed ".0" mg/kg per os) | Decrease in weight of granuloma (%) (granuloma; rat dose 3.2 mg/kg per os) | Ulcer-inducing effect (rats; 3.2 mg/kg per os) | Ulcer-inducing effect (rats; 5.6 mg/kg per os) | Ulcer-inducing effect (rats; 7.5 mg/kg per os) | Inhibiting effect (%) (Rat Paw Edema; 3.2 mg/kg per os) | Inhibiting effect (%) (Rat Paw Edema; 5.6 mg/kg per os)
1 | CCCCCC(=O)C=Cc1ccc(CCCCCCCCC(=O)OC)s1 [Example 5, 9-[5-(3-oxooct-1-enyl)thien-2-yl]nonanoic acid methyl ester] | -28 | -35 | -24 | -13 | 0 | 0 | 0 | -26 | -38 | – | – | – | – | – | –
2 | COc1ccc2c(c1)c(CC(=O)O)c(C)n2C(=O)c1ccc(Cl)cc1 [Indomethacin, indomethacin] | -29 | -37 | -21 | – | – | – | – | – | – | -27 | ++ | +++ | +++ | -25 | -45
